This is an account of results in US20100143386A1, “FGFR4 Promotes Cancer Cell Resistance in Response to Chemotherapeutic Drugs” (Max-Planck-Gesellschaft zur foerderung der Wissenschaften, …, priority 2006, published 2010).

Test [1] deals with Bcl-xl expression. The conditions noted are these: MCF7-FGFR4 cells, 10 μM U0126 for 6 hours and 12 hours.
Description: RNA was isolated using the RNeasy Mini Kit (Qiagen, Hilden, Germany) and reversely transcribed into cDNA using the AMV reverse transcriptase (Roche, Mannheim, Germany) and OligodT-Primer (Gibco, Germany). The RNA and cDNA concentration was measured using the NanoDrop ND1000 (PeqLab, Erlangen, Germany) system. […] PCR products were subjected to electrophoresis on a 2% agarose gel and DNA was visualized by ethidium bromide staining.
Test [2] concerns Fgfr4 mediated downstream signalling (p-Erk). Description: FGF19 induced MAPK activation (P-ERK immunoblot) in breast cancer cell lines. The test is classed as cell-based. The conditions noted are these: BT-474, MDA-MB-361 and ZR75-1 starved 48 h; compared to not stimulated control cells. As to the method: Secondary HRP-conjugated antibodies were goat anti-mouse (Sigma, Taufkirchen, Germany) and goat anti-rabbit (Biorad, Munich, Germany).
Cell cultures were washed with PBS and incubated at 4° C. with lysis buffer (50 mM HEPES/NaOH, pH 7.5, 150 mM NaCl, 1 mM EDTA, 10% glycerol and 1% Triton X-100) supplemented with phosphatase and protease inhibitors (10 mM sodium pyrophosphate, 1 mM PMSF, 2 mM sodium orthovanadate, 10 μg/ml aprotinin). Cellular debris was removed by centrifugation. Protein concentration measurements were performed using the Micro-BCA-Protein-Assay Kit from Pierce (Bonn, Germany). For immunoprecipitations, whole-cell lysates were combined with antibody and 30 μl of protein A- or G-sepharose slurry (GE Healthcare). The samples were incubated for 3 h on a rotation wheel at 4° C. The precipitates were washed three times with HNTG buffer (20 mM HEPES/NaOH, pH 7.5, 150 mM NaCl, 10% glycerol, 0.1% Triton X-100 and 10 mM sodium pyrophosphate) suspended in 3×SDS sample buffer, boiled for 3 min and subjected to SDS-PAGE. For Western blot analysis, proteins were transferred to nitrocellulose membranes and incubated with the appropriate antibodies. Signals were developed via an enhanced chemiluminescence detection system (ECL, Perkin Elmer, Wellesley, Mass.). Before reprobing, membranes were stripped with 65 mM Tris/HCl pH 6.8 buffer containing 2% SDS at 50° C. for 1 h.

Turning to `N#CC(=C(/N)Sc1ccccc1N)/C(C#N)=C(\N)Sc1ccccc1N` [U0126], in test [1], the “Bcl-xl expression (semiquantitative PCR)” value is given as “abolished”.
On to “FGF19: specific ligand of Fgfr4, FGF-Ligands purchased from TEBU”, for which the “p-Erk-levels on FGF19 stimulation” value in test [2] is “increased”.
